Experimental data as given in paper PMC6301967, “Molecular comparison of Neanderthal and Modern Human adenylosuccinate lyase” (Scientific Reports, 2018).
Numbering of substitutions follows the chain as printed. Names and notes keep the numbering of the source.

Tests used:
[1] = molecular target: T1, hADSL (modern human adenylosuccinate lyase) (Homo sapiens, UniProt P30566); assay: small angle X-ray scattering; assay type: binding; conditions: 1 mM product(s), with fumarate; 20 °C; no curve change with AICAR alone
T1 construct: gene ADSL; N-terminal thrombin-cleavable His tag (pET-14b), E. coli Rosetta2 (DE3); tag cut, but kept for the domain 3 mutants; homotetramer; Val429
T1 sequence (P30566 1-484): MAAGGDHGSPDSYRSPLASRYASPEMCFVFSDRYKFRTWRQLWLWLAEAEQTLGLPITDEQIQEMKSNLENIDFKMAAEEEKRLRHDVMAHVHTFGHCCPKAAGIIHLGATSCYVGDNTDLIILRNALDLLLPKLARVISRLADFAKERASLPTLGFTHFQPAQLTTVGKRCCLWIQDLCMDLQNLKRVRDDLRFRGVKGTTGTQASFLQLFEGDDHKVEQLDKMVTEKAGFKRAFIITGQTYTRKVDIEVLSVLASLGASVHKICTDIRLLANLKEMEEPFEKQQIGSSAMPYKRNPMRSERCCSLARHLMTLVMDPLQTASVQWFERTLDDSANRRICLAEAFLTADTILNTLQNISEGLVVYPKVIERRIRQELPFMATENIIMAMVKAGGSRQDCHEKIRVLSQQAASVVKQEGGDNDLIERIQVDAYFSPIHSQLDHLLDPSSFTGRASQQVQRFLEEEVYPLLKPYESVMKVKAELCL

[2] = molecular target: T1, hADSL (modern human adenylosuccinate lyase); assay: isothermal titration calorimetry; assay type: binding
[3] = molecular target: T2, nADSL (Neanderthal adenylosuccinate lyase); assay: isothermal titration calorimetry; assay type: binding, Homo sapiens neanderthalensis; conditions: 10 mM HEPES pH 7.5, 100 mM NaCl, 1 mM DTT, 20 °C; 90 µM protein in cell
T2 construct: gene ADSL; Neanderthal (ancestral Ala429) variant, equals human ADSL with V429A; N-terminal thrombin-cleavable His tag (pET-14b), cut; E. coli Rosetta2 (DE3); homotetramer

[4] = tested on: T2, nADSL (Neanderthal adenylosuccinate lyase); assay: absorbance at […] nm, SAMP breakdown; assay type: biochemical, Homo sapiens neanderthalensis; conditions: forward reaction, room temperature; positive cooperativity, Hill coefficient 1.8; read-out: K0.5
[5] = tested on: T2, nADSL (Neanderthal adenylosuccinate lyase); assay: absorbance at […] nm, SAMP formation; assay type: biochemical, Homo sapiens neanderthalensis; conditions: reverse reaction, 1 mM AMP, room temperature; Michaelis-Menten fit
[6] = molecular target: T1, hADSL (modern human adenylosuccinate lyase); assay: absorbance at […] nm, SAMP formation; assay type: biochemical; conditions: reverse reaction, 1 mM AMP, room temperature; Michaelis-Menten fit
[7] = molecular target: the molecule itself; assay: SEC; Superdex 200 in 10 mM HEPES pH 7.5, 100 mM NaCl, 1 mM DTT; last step of the purification; single peak
[8] = substrate: O=C(O)C[C@H](Nc1ncnc2c1ncn2[C@@H]1O[C@H](COP(=O)(O)O)[C@@H](O)[C@H]1O)C(=O)O; assay: purified protein; assay type: biochemical, Homo sapiens; conditions: room temperature
[9] = molecular target: the molecule itself; assay: crystal structure; nADSL apo (1.7 Å), with AMP/fumarate (2.3 Å) and with AICAR/fumarate; vapour diffusion, 10 mg/mL protein; homotetramer
[10] = His tag not cleaved, 0.01 mg/mL enzyme, cooperative model fit

NC(=O)c1ncn([C@@H]2O[C@H](COP(=O)(O)O)[C@@H](O)[C@H]2O)c1N [AICAR]
small angle X-ray scattering [1]: addition of both AMP/fumarate or AICAR/fumarate to the protein results in a similar altered scattering

Nc1ncnc2c1ncn2[C@@H]1O[C@H](COP(=O)(O)O)[C@@H](O)[C@H]1O [AMP]
Kd [2]: ~25 µM | Kd [3]: ~25 µM

O=C(O)C[C@H](Nc1ncnc2c1ncn2[C@@H]1O[C@H](COP(=O)(O)O)[C@@H](O)[C@H]1O)C(=O)O [SAMP]
Km [4]: 1.1 µM

O=C(O)/C=C/C(=O)O [fumarate]
Km [5]: 66 µM | Km [6]: 80 µM

B1: modern human adenylosuccinate lyase (enzyme, UniProt P30566 1-484, looked up)
chain: T1 sequence (P30566 1-484)
notes: adenylosuccinate lyase (ADSL), modern human (Val429); Expressed from pET-14b with a thrombin-cleavable N-terminal histidine tag; also called hADSL; native hADSL; source: E. coli Rosetta2 (DE3), purified (HisTrap, thrombin cleavage, benzamidine-sepharose, Superdex 200); not shown: histidine tag, N-terminal, cleaved
stoichiometry N [7]: 4 | K0.5 ([8]; forward reaction, positive cooperativity, Hill coefficient 1.6): 1.1 µM

B2: hADSL (modern human adenylosuccinate lyase) (Homo sapiens; D422Y) (protein)
chain: T1 sequence (P30566 1-484) with D422Y
notes: N-terminal thrombin-cleavable His tag (pET-14b), E. coli Rosetta2 (DE3); tag cut, but kept for the domain 3 mutants; homotetramer; Val429
K0.5 [8, 10]: 0.36 ± 0.03 µM

B3: hADSL (modern human adenylosuccinate lyase) (Homo sapiens; R426H) (protein)
chain: T1 sequence (P30566 1-484) with R426H
notes: as for B2
K0.5 [8, 10]: 0.75 ± 0.06 µM

B4: Neanderthal adenylosuccinate lyase (enzyme)
chain: T1 sequence (P30566 1-484) with V429A
notes: Expressed from pET-14b with a thrombin-cleavable N-terminal histidine tag; also called nADSL; ancestral Ala429 ADSL variant; source: E. coli Rosetta2 (DE3), purified (HisTrap, thrombin cleavage, benzamidine-sepharose, Superdex 200); not shown: histidine tag, N-terminal, cleaved
stoichiometry N [9]: 4
